The results in this text go back to patent US5194379A, “Microbial transformation process for the preparation of hydroxylanol imidazo (4,5-b) pyridines useful as angiotensin II receptor antagonists” (Merck & Co., Inc., priority 1991, dated 1993).

This experiment concerns the target T1, Angiotensin II (A II) receptor (Oryctolagus cuniculus, UniProt P34976).
T1 sequence (P34976 1-359): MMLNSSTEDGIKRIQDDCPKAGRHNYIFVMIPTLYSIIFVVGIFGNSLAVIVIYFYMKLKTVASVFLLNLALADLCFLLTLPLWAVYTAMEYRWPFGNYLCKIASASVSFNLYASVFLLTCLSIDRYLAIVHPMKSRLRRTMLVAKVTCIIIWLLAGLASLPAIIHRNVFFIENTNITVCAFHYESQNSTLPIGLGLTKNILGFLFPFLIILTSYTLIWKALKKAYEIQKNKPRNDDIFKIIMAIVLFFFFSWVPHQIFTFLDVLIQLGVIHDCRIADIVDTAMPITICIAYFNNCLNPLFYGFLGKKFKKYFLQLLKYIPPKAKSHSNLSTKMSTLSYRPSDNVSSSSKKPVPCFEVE
The experiment can be described thus: Receptor Binding Assay Using Rabbit Aortae Membrane Preparation (displacement of 125I-Sar1Ile8-angiotensin II). How it is done:
This assay is also referred to herein as the "IC50 " assay.
Receptor Binding Assay Using Rabbit Aortae Membrane Preparation
Three frozen rabbit aortae (obtained from Pel-Freeze Biologicals) were suspended in 5 mM Tris-0.25M Sucrose, pH 7.4 buffer (50 ml) homogenized, and then centifuged. The mixture was filtered through a cheesecloth and the supernatant was centrifuged for 30 minutes at 20,000 rpm at 4° C. The pellet thus obtained was resuspended in 30 ml of 50 mM Tris-5 mM MgCl2 buffer containing 0.2% Bovine Serum Albumin and 0.2 mg/ml Bacitration and the suspension was used for 100 assay tubes. Samples tested for screening were done in duplicate. To the membrane preparation (0.25 ml) there was added ^125 I-Sar^1 Ile^8 -angiotensin II [obtained from New England Nuclear] (10 ul; 20,000 cpm) with or without the test sample and the mixture was incubated at 37° C. for 90 minutes. The mixture was then diluted with ice-cold 50 mM Tris---0.9% NaCl, pH 7.4 (4 ml) and filtered through a glass fiber filter (GF/B Whatman 2.4" diameter). The filter was soaked in scintillation cocktail (10 ml) and counted for radioactivity using Packard 2260 Tricarb liquid scintillation counter. […]
A general note: In a radioligand displacement assay an active substance lowers the binding of a labelled ligand.

SMILES strings stand for the structures.

For the molecule `CCc1nc2c(C)cc(CO)nc2n1Cc1ccc(-c2ccccc2-c2nnn[nH]2)cc1` [compound (I)], the “A II antagonist activity by the IC50 assay (in words)” value is “exhibit A II antagonist activity”.
Then `CCc1nc2c(CO)cc(C)nc2n1Cc1ccc(-c2ccccc2-c2nnn[nH]2)cc1` [compound (II)], with “exhibit A II antagonist activity”.
